# Legend:
# TLR2^-/- macrophages = settings: Science 291, 1544, 2001; cited from earlier work
# TLR1^-/- macrophages [1] = type: cell-based, mouse
# [2] = test system: peritoneal macrophages of wild-type mice; type: cell-based, mouse
# TLR1^-/- macrophages [3] = type: cell-based, mouse; remark: listed apart in the source
# TLR2 = biological target: T1, TLR2 (Homo sapiens, UniProt O60603); assay: NF-κB pELAM-luciferase reporter assay in HEK 293 cells expressing TLR2; type: cell-based; settings: expression of TLR2, 10 ng/ml for 8 h
# T1 construct: expressed in transfected cells; host or cells: HEK 293 cells, transient transfection
# T1 sequence (O60603 21-784, species assumed): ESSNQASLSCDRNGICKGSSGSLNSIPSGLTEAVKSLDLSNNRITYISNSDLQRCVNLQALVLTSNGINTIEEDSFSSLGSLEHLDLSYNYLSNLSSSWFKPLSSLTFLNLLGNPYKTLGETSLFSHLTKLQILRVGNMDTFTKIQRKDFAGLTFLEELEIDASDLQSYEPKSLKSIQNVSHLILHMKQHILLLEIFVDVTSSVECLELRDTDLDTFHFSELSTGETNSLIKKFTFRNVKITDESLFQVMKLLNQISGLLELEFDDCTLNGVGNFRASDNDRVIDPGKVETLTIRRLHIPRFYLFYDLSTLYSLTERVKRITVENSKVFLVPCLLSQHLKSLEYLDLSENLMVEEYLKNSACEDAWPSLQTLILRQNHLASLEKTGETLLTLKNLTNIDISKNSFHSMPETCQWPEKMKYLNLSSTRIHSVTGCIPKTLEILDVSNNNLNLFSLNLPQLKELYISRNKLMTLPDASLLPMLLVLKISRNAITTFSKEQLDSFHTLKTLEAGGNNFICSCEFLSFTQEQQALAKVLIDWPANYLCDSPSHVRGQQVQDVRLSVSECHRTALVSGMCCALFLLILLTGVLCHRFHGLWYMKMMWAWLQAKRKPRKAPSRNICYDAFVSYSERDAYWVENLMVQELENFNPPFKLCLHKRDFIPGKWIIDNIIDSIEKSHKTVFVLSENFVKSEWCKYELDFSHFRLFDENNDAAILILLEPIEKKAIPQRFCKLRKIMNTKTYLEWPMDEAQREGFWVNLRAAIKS
# T1 sequence (Q15399 25-786, species assumed, further chain): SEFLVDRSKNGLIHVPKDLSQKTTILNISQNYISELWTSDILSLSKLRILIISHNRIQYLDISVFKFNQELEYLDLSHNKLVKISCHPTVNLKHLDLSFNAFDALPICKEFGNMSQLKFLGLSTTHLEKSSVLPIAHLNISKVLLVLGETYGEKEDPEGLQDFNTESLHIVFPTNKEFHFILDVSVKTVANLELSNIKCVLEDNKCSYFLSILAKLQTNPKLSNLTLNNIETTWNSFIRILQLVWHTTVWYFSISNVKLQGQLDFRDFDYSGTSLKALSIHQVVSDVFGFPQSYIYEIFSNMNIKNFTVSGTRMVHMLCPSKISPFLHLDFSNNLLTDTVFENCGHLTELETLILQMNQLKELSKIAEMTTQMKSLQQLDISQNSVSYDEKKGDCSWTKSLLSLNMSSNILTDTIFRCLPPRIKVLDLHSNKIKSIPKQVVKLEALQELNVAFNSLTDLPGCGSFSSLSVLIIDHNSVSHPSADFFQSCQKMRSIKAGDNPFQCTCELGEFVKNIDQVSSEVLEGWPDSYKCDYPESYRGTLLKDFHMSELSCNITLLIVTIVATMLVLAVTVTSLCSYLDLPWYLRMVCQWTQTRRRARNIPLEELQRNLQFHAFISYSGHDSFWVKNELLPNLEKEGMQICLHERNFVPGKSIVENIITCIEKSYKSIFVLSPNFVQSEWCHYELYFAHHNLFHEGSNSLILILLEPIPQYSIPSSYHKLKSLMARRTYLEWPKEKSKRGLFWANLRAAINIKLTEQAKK
# Method: (§1) HEK 293 cells were transformed with TLR1, TLR2 and TLR6 expression vectors, and pELAM-luciferase reporter plasmid were used together. For normalization of transfection efficiency by lipofectamine 2000 (Invitrogen), the indicated vector was used with pELAM-luciferase reporter plasmid (J. Bio. Chem. 274, 10689, 1999) and pRL-TK (Promega) to transfect transiently […] cells. 24 h after transfection, the cells were stimulated with 10 ng/ml of Pam3CSK4 for 8 h. Then, the cells were lysed, and luciferase activity was measured by using Dual-luciferase reporter assay system (Promega) according to the manufacturer's instruction.
# TLR1 and TLR2 [4] = biological target: T2, TLR1 and TLR2 (Homo sapiens, UniProt O60603+Q15399); assay: NF-κB pELAM-luciferase reporter assay in HEK 293 cells co-expressing TLR1 and TLR2; type: cell-based; set-up: expressed in transfected cells; host or cells: HEK 293 cells, transient transfection; settings: co-expression of TLR1 with TLR2, 10 ng/ml for 8 h
# T2 sequence (Q15399 25-786, species assumed): as the sequence (Q15399 25-786, species assumed, further chain) above
# T2 sequence (O60603 21-784, species assumed): as the sequence (O60603 21-784, species assumed) above
# Method: as §1
# TLR1 and TLR2 [5] = biological target: T2, TLR1 and TLR2; assay: Co-immunoprecipitation of HA-tagged TLR1 and Flag-tagged TLR2 in HEK293 cells; type: binding; set-up: expressed in transfected cells; host or cells: HEK293 cells
# Method: HEK293 cells were co-transfected with 3 μg Flag-tagged TLR2, TLR4 or 6 μg HA-tagged TLR1. After 36 h, the cells were lysed in the lysis buffer containing 1.0% Nonidet P-40, 150 mM NaCl, 20 mM tris-HCl (pH 7.5), 5 mM EDTA and aprotease inhibitor cocktail tablet, Complete (Roche Diagnostics). The solution was pre-treated for 1 h with protein G-sepharose, and immunoprecipitated for 12 h by using 2 μg anti-Flag M2 antibody or 2 μg anti-HA 12 CA5 antibody. The beads were washed four times in the lysis buffer, and the immunoprecipitated proteins were eluted in SDS-PAGE sample buffer solution, separated on SDS-PAGE and transferred onto PVDF membrane. HA-tagged TLR1 was detected with anti-HA antibody (Roche Diagnostics) and HRP-tagged anti-mouse Ig antibody. Flag-tagged proteins were identified with the second antibody, HRP-conjugated anti-Flag M2 antibody. Then, the antibodies were detected by enhanced chemiluminescence system (Dupont).
# TLR6 and TLR2 = biological target: T3, TLR6 and TLR2 (Homo sapiens, UniProt O60603); assay: NF-κB pELAM-luciferase reporter assay in HEK 293 cells co-expressing TLR6 and TLR2; type: cell-based; settings: co-expression of TLR6 and TLR2, 10 ng/ml for 8 h
# T3 construct: expressed in transfected cells; host or cells: HEK 293 cells, transient transfection
# T3 sequence (O60603 21-784, species assumed): as above
# Method: as §1
substance,measurement,setting,value
19 kD lipoprotein: Native 19-kD lipoprotein purified from Mycobacterium tuberculosis,Cytokine production,TLR2^-/- macrophages,inhibited
same,TNFα production,TLR1^-/- macrophages [1],impaired
same,TNFα production,[2],generated TNFα in a dose-dependent manner
same,IL-6 production,TLR1^-/- macrophages [3],lower in TLR1^-/- macrophages compared with that of wild-type cells
MALP-2,TNFα production,TLR1^-/- macrophages [1],responded normally
N-lauryl-S-dilauryl gylceryl (Lau3)CSK4 [Lau3CSK4],TNFα production,TLR1^-/- macrophages [1],impaired
N-myristyl-S-dimyristyl glyceryl (Myr3) CSK4 [Myr3CSK4],TNFα production,TLR1^-/- macrophages [1],impaired
N-palmitoyl-S-dilauryl glyceryl (N-Pam-S-Lau2)CSK4 [Lau2N-PamCSK4],TNFα production,TLR1^-/- macrophages [1],considerably impaired
N-palmitoyl-S-dipalmitoyl glyceryl (Pam3) CSK4 [Pam3CSK4],NF-κB activation (luciferase activity),TLR2,conferred the NF-κB activation
same,TNFα production,TLR1^-/- macrophages [1],significantly impaired
same,NF-κB activation (luciferase activity),TLR1 and TLR2 [4],significantly enhanced the activation
same,extent of association between TLR1 and TLR2 on stimulation,TLR1 and TLR2 [5],did not affect
same,NF-κB activation (luciferase activity),TLR6 and TLR2,did not augment the NF-κB activation
